# System: regenerated shoots of Mentha arvensis varieties
# Assay: whole plant or invertebrate
# Format: cell-based
# Settings: 168 h, read-out: mortality of shoots
# Source text: The plant varieties analysed were Himalaya, Shivalik, Gomti, MAS-1, Kosi, Kalka of Mentha arvensis L. (2n=96). The suckers of these plant varieties were obtained from CIMAP's national gene bank for medicinal and aromatic plants for planting. The explant materials were collected from the field grown plants and surface sterilized by washing sequentially with 2% detergent, distilled water containing a few drops of Savlon (Johnson and Johnson, India), 0.1% acidified mercuric chloride and autoclaved distilled water before inoculation. About 1 cm long internodal pieces were inoculated in the MS medium (Murasighe and Skoog, 1962) containing vitamins, 100 mg l^−1 myo-inositol 3% wv^−1 sucrose, 1.5% wv^−1 agar (Difco), 0.5 .μg ml^−1 of an auxin, (NAA, 1-napthalene acetic acid) and 5 μg ml^−1 of a cytokinin (BAP, benzyl aminopurine) (Shasany et al, 1998). The cultures were grown at 25±2° C. and 400 to 600 lux light intensity with 16 h photoperiod. The regenerated shoots were separated 12 weeks after the explant inoculation for rooting and/or testing menthol tolerance.
# The regenerated shoots (3-4 cm long, containing the apical bud and 2-3 nodes) separated after 12 weeks, were inoculated into MS basal medium with or without menthol (0 to 100 μg ml^−1). […] The wilting response and lethality in explants was recorded every 24 hours over a period of one week.
smiles,measurement,value
CC1CCC(C(C)C)C(O)C1 (stereo not shown) [menthol],mortality at 80 ppm,100%

# From patent publication US6423541B1, “Process for in vitro selection of high methol producing genotypes” (Council of Scientific&Industrial Reaearch, priority 2000, dated 2002)
